From patent publication US20130203662A1, “Mini-Hepcidin Peptides and Methods of Using Thereof” (priority 2008, published 2013)
Bridge positions count the residues as written; N and C are the ends. Square brackets hold non-standard residues; d marks the D form. Ends that are not written are not given here. Peptide text beside a SMILES is read from it. Oic = O=C(O)[C@@H]1C[C@@H]2CCCC[C@@H]2N1; Dip = N[C@H](C(=O)O)C(c1ccccc1)c1ccccc1; 1Nal = N[C@@H](Cc1cccc2ccccc12)C(=O)O; β3hF = N[C@H](CC(=O)O)Cc1ccccc1; β3hP = O=C(O)C[C@@H]1CCCN1

These molecules were tested against T1, ferroportin fused to green fluorescent protein (ECR293/Fpn-GFP cells) (Mus musculus, UniProt Q9JHI9) (assay: Flow cytometry of ferroportin-GFP internalization and degradation in ECR293/Fpn-GFP cells). Settings: not given.
T1 sequence (Q9JHI9 1-570): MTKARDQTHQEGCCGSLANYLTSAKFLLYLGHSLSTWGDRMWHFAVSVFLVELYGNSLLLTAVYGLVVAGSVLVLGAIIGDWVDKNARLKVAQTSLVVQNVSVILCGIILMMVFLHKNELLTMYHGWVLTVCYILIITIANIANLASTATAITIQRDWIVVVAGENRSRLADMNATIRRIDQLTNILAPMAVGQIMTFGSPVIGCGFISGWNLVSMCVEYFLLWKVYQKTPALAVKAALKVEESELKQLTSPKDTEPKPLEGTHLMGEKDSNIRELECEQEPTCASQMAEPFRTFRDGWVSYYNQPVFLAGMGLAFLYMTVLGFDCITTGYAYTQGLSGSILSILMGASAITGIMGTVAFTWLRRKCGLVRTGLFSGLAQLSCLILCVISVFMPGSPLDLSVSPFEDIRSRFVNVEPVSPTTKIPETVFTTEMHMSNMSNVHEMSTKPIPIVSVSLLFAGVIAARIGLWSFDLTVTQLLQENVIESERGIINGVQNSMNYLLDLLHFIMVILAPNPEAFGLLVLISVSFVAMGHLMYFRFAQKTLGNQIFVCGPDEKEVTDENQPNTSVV
Assay type: cell-based
Experimental: In vitro activity may be measured by the dose-dependent loss of fluorescence of cells engineered to display ferroportin fused to green fluorescent protein as in Nemeth et al. (2006) Blood 107:328-33. […]
FLOW CYTOMETRY. The activity of peptides of the present invention was measured by flow cytometry as previously described. See Nemeth et al. (2006) Blood 107:328-333, which is herein incorporated by reference. ECR293/Fpn-GFP, a cell line stably transfected with a ponasterone-inducible ferroportin construct tagged at the C-terminus with green fluorescent protein was used. See Nemeth et al. (2004) Science 306:2090-2093, which is herein incorporated by reference. Briefly, the cells were plated on poly-D-lysine coated plates in the presence of 20 μM FAC, with or without 10 μM ponasterone. After 24 hours, ponasterone was washed off, and cells were treated with peptides for 24 hours. Cells were then trypsinized and resuspended at 1×10^6 cells/ml, and the intensity of green fluorescence was analyzed by flow cytometry. […] Cells not induced with ponasterone to express Fpn-GFP were used to establish a gate to exclude background fluorescence. Cells induced with ponasterone, but not treated with any peptides, were used as the positive control. Each peptide was tested over the range of concentrations (0, 0.01, 0.03, 0.1, 0.3, 1, 3 and 10 μM). Each peptide treatment was repeated independently 3 to 6 times.

| Molecule | EC50 |
| --- | --- |
| CC[C@H](C)[C@H](NC(=O)[C@H](CS)NC(=O)[C@@H](NC(=O)[C@@H]1CCCN1C(=O)[C@@H](NC(=O)[C@@H](N)CC(=O)O)C(c1ccccc1)c1ccccc1)[C@@H](C)CC)C(=O)N[C@H](C(N)=O)C(c1ccccc1)c1ccccc1 [Pr41] (H-D[Dip]PICI[Dip]-NH2) | 300 nM |

Same assay, conditions: concentration eliciting 50% of maximal loss of fluorescence generated by reference Hep25; 24 hours

| Molecule | EC50 |
| --- | --- |
| CC[C@H](C)[C@H](NC(=O)[C@H](CS)NC(=O)[C@@H](NC(=O)[C@@H]1CCCN1C(=O)[C@H](Cc1ccccc1)NC(=O)[C@H](Cc1c[nH]cn1)NC(=O)[C@@H](NC(=O)[C@@H](N)CC(=O)O)[C@@H](C)O)[C@@H](C)CC)C(=O)N[C@H](CC(=O)N1CCC[C@@H]1C(=O)N1CCC[C@H]1C(=O)N[C@@H](CCCCN)C(N)=O)Cc1ccccc1 [Pr19] (H-DTHFPICI[β3hF][dP]PK-NH2) | 700 nM |
| CC[C@H](C)[C@H](NC(=O)[C@H](CS)NC(=O)[C@@H](NC(=O)[C@@H]1CCCN1C(=O)[C@H](Cc1ccccc1)NC(=O)[C@H](Cc1c[nH]cn1)NC(=O)[C@@H](NC(=O)[C@@H](N)CC(=O)O)[C@@H](C)O)[C@@H](C)CC)C(=O)N[C@@H](Cc1ccccc1)C(=O)N1CCC[C@@H]1C(=O)N1CCC[C@H]1CC(=O)N[C@@H](CCCCN)C(N)=O [Pr17] | 300 nM |
| C[C@@H](O)[C@H](NC(=O)[C@@H](N)CC(=O)O)C(=O)N[C@@H](Cc1c[nH]cn1)C(=O)N[C@H](C(=O)N1CCC[C@H]1C(=O)N[C@@H](CCCNC(=N)N)C(=O)N[C@@H](CS)C(=O)N[C@@H](CCCNC(=N)N)C(=O)N[C@H](C(N)=O)C(c1ccccc1)c1ccccc1)C(c1ccccc1)c1ccccc1 [Pr42] (H-DTH[Dip]PRCR[Dip]-NH2; N-terminus assumed) | 30 nM |
| CC[C@H](C)[C@H](NC(=O)[C@H](CS)NC(=O)[C@@H](NC(=O)[C@@H]1CCCN1C(=O)[C@@H](NC(=O)[C@H](Cc1c[nH]cn1)NC(=O)[C@@H](NC(=O)[C@@H](N)CC(=O)O)[C@@H](C)O)C(c1ccccc1)c1ccccc1)[C@@H](C)CC)C(=O)N[C@H](C(N)=O)C(c1ccccc1)c1ccccc1 [Pr39] (H-DTH[Dip]PICI[Dip]-NH2) | 35 nM |
| CC[C@H](C)[C@H](NC(=O)[C@H](CS)NC(=O)[C@@H](NC(=O)[C@@H]1CCCN1C(=O)[C@H](Cc1ccccc1)NC(=O)[C@H](Cc1c[nH]cn1)NC(=O)[C@@H](NC(=O)[C@@H](N)CC(=O)O)[C@@H](C)O)[C@@H](C)CC)C(=O)N[C@@H](Cc1ccccc1)C(=O)N1CCC[C@@H]1C(=O)N1CCC[C@H]1CC(=O)N[C@@H](CCCNC(=N)N)C(N)=O [Pr18] | 1000 nM |
| CC[C@H](C)[C@H](NC(=O)[C@H](CS)NC(=O)[C@@H](NC(=O)[C@@H]1CCCN1C(=O)[C@@H](NC(=O)[C@H](Cc1c[nH]cn1)NC(=O)[C@@H](NC(=O)[C@@H](N)CC(=O)O)[C@@H](C)O)C(c1ccccc1)c1ccccc1)[C@@H](C)CC)C(=O)N[C@@H](Cc1ccccc1)C(N)=O [F4Dpa] (H-DTH[Dip]PICIF-NH2; N-terminus assumed) | 30 nM |

Same assay, conditions: concentration eliciting 50% of maximal loss of fluorescence generated by reference Hep25; 24 hours; read-out: EC50 (the source's name)

| Molecule | DC50 |
| --- | --- |
| CC[C@H](C)[C@H](NC(=O)[C@H](CS)NC(=O)[C@@H](NC(=O)[C@@H]1CCCN1C(=O)[C@H](Cc1cccc2ccccc12)NC(=O)[C@H](Cc1c[nH]cn1)NC(=O)[C@@H](NC(=O)[C@@H](N)CC(=O)O)[C@@H](C)O)[C@@H](C)CC)C(=O)N[C@@H](Cc1ccccc1)C(N)=O [F4 1Nal] (H-DTH[1Nal]PICIF-NH2; N-terminus assumed) | 110 nM |
| CC[C@H](C)[C@H](NC(=O)[C@H](CS)NC(=O)[C@@H](NC(=O)[C@@H]1CCCN1C(=O)[C@H](Cc1ccccc1)NC(=O)[C@H](Cc1c[nH]cn1)NC(=O)[C@@H](NC(=O)[C@@H](N)CC(=O)O)[C@@H](C)O)[C@@H](C)CC)C(=O)N[C@H](CC(=O)N1CCC[C@@H]1C(=O)N1CCC[C@H]1C(=O)N[C@@H](CCCNC(=N)N)C(N)=O)Cc1ccccc1 [Pr20] (H-DTHFPICI[β3hF][dP]PR-NH2) | 200 nM |
| CC[C@H](C)[C@H](NC(=O)[C@@H](NC(=O)[C@@H](NC(=O)[C@@H]1CCCN1C(=O)[C@H](Cc1ccccc1)NC(=O)[C@H](Cc1c[nH]cn1)NC(=O)[C@@H](NC(=O)[C@@H](N)CC(=O)O)[C@@H](C)O)[C@@H](C)CC)C(C)(C)S)C(=O)N[C@@H](Cc1ccccc1)C(N)=O [Pen] | 700 nM |
| CC[C@H](C)[C@H](NC(=O)[C@@H]1CCCN1C(=O)[C@@H](N)Cc1ccccc1)C(=O)N[C@@H](CS)C(N)=O [Hep4] (H-FPIC-NH2) | > 10000 nM |
| CC[C@H](C)[C@H](NC(=O)[C@H](CCS)NC(=O)[C@@H](NC(=O)[C@@H]1CCCN1C(=O)[C@H](Cc1ccccc1)NC(=O)[C@H](Cc1c[nH]cn1)NC(=O)[C@@H](NC(=O)[C@@H](N)CC(=O)O)[C@@H](C)O)[C@@H](C)CC)C(=O)N[C@@H](Cc1ccccc1)C(N)=O [homoC] | 900 nM |
| CC[C@H](C)[C@H](NC(=O)[C@H](CS)NC(=O)[C@@H](NC(=O)[C@@H]1CCCN1C(=O)[C@H](Cc1ccccc1)NC(=O)[C@H](Cc1c[nH]cn1)NC(=O)[C@@H](NC(=O)[C@@H](N)CC(=O)O)[C@@H](C)O)[C@@H](C)CC)C(=O)N[C@H](CC(N)=O)Cc1ccccc1 [F9bhPhe] | 150 nM |
| CC[C@H](C)[C@H](NC(=O)[C@H](CS)NC(=O)[C@@H](NC(=O)[C@@H]1CCCN1C(=O)C[C@H](Cc1ccccc1)NC(=O)[C@H](Cc1c[nH]cn1)NC(=O)[C@@H](NC(=O)[C@@H](N)CC(=O)O)[C@@H](C)O)[C@@H](C)CC)C(=O)N[C@@H](Cc1ccccc1)C(N)=O [F4bhPhe] | 700 nM |
| DTHFPIC-NH2 [Hep7] | > 10000 nM |
| CC[C@H](C)[C@H](NC(=O)[C@H](CS)NC(=O)[C@@H](NC(=O)[C@@H]1C[C@@H]2CCCC[C@@H]2N1C(=O)[C@@H](NC(=O)[C@H](Cc1c[nH]cn1)NC(=O)[C@@H](NC(=O)[C@@H](N)CC(=O)O)[C@@H](C)O)C(c1ccccc1)c1ccccc1)[C@@H](C)CC)C(=O)N[C@@H](Cc1ccccc1)C(N)=O [Pr44] (H-DTH[Dip][Oic]ICIF-NH2; N-terminus assumed) | 30 nM |
| CC[C@H](C)[C@H](NC(=O)[C@H](CS)NC(=O)[C@@H](NC(=O)[C@@H]1CCCN1C(=O)[C@H](Cc1ccccc1)NC(=O)[C@H](Cc1c[nH]cn1)NC(=O)[C@@H](NC(=O)[C@@H](N)CC(=O)O)[C@@H](C)O)[C@@H](C)CC)C(=O)N[C@@H](Cc1ccccc1)C(=O)N1CCC[C@@H]1C(=O)N1CCC[C@H]1C(=O)N[C@@H](CCCNC(=N)N)C(N)=O [Pr14] | 90 nM |
| HFPIC-NH2 [Hep5] | > 10000 nM |
| CC[C@H](C)[C@H](NC(=O)[C@H](CS)NC(=O)[C@@H](NC(=O)[C@@H]1CCCN1C(=O)[C@H](Cc1ccccc1)NC(=O)[C@H](Cc1c[nH]cn1)NC(=O)[C@@H](NC(=O)[C@@H](N)CC(=O)O)[C@@H](C)O)[C@@H](C)CC)C(=O)N[C@@H](Cc1cccc2ccccc12)C(N)=O [F91Nal] (H-DTHFPICI[1Nal]-NH2; N-terminus assumed) | 200 nM |
| CC[C@H](C)[C@H](NC(=O)[C@H](CS)NC(=O)[C@@H](NC(=O)[C@@H]1CCCN1C(=O)[C@H](Cc1ccccc1)NC(=O)[C@H](Cc1c[nH]cn1)NC(=O)[C@@H](NC(=O)[C@@H](N)CC(=O)O)[C@@H](C)O)[C@@H](C)CC)C(=O)N[C@H](CC(=O)N1CCC[C@@H]1C(=O)N1CCC[C@H]1CC(=O)N[C@@H](CCCCN)C(N)=O)Cc1ccccc1 [Pr21] (H-DTHFPICI[β3hF][dP][β3hP]K-NH2) | 500 nM |

Same assay, conditions: read-out: EC50; concentration eliciting 50% of maximal loss of fluorescence generated by reference Hep25; 24 hours

| Molecule | DC50 |
| --- | --- |
| CC[C@H](C)[C@H](NC(=O)[C@@H]1CSSC[C@H](N)C(=O)N[C@@H](Cc2c[nH]cn2)C(=O)N[C@@H](Cc2ccccc2)C(=O)N2CCC[C@H]2C(=O)N[C@@H]([C@@H](C)CC)C(=O)N1)C(=O)N[C@@H](Cc1ccccc1)C(N)=O [Cyc-2] (H-CHFPICIF-NH2; disulfide 1-6) | > 10000 nM |
